Reference: patent publication US10670605B2, “Cysteine reactive probes and uses thereof” (The Scripps Research Institute, priority 2015, dated 2020)

Tests used:
Test in all cases: Competitive isoTOP-ABPP in situ (fragment-treated cells)
Format in all cases: cell-based
Conditions in all cases: 200 μM, insitu, 231
[1] = target: T1, cysteines in MDA-MB-231 and Ramos cells (Homo sapiens, UniProt Q9NQR4)
T1 sequence (Q9NQR4 1-276): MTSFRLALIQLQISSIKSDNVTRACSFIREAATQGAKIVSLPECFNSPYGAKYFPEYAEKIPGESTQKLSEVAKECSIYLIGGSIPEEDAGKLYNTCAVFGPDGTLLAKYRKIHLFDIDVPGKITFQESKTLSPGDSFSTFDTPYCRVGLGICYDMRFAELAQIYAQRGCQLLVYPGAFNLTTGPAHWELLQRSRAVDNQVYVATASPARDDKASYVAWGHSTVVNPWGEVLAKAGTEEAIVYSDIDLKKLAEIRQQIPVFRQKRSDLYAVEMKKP

[2] = target: T2, cysteines in MDA-MB-231 and Ramos cells (Homo sapiens, UniProt P22307)
T2 sequence (P22307 1-547): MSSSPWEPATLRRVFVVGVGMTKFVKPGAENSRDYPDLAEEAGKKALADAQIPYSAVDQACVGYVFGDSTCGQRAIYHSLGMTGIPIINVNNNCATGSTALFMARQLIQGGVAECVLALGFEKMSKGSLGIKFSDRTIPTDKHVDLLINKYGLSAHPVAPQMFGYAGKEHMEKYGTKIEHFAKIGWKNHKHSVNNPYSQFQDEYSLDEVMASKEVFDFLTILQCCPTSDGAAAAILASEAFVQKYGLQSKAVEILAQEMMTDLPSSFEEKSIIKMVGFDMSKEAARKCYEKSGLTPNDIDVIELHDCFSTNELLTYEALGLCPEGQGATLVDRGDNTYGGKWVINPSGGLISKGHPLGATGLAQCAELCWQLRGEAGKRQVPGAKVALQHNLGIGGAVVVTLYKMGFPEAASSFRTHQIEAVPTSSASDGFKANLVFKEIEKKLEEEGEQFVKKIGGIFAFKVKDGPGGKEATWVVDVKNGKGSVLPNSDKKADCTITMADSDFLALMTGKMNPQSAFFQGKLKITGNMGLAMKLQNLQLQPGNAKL

[3] = target: T3, cysteines in MDA-MB-231 and Ramos cells (Homo sapiens, UniProt P42166)
T3 sequence (P42166 1-694): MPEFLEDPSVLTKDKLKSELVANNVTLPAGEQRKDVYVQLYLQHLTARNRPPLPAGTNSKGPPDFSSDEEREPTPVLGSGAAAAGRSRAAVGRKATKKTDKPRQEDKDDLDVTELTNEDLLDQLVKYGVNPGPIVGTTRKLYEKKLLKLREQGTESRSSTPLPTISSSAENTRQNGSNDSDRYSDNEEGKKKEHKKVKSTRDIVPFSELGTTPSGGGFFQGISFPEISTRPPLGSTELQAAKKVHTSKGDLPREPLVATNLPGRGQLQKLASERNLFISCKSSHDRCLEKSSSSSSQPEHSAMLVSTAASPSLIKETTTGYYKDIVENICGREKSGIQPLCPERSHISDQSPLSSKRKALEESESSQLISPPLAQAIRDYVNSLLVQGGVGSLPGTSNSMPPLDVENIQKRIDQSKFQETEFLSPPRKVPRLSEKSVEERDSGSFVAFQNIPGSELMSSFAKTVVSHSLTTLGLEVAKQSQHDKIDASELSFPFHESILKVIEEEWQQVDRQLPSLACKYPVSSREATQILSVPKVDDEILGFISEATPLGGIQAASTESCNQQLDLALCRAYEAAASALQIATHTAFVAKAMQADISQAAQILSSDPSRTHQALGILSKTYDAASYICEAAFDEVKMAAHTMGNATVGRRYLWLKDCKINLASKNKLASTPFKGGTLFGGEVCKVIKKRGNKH

[4] = target: T4, cysteines in MDA-MB-231 and Ramos cells (Homo sapiens, UniProt Q9Y3D0)
T4 sequence (Q9Y3D0 1-163): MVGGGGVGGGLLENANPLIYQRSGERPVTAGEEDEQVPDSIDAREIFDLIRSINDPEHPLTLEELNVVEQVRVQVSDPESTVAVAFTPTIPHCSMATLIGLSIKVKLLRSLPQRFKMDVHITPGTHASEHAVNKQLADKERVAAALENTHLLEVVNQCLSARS

[5] = target: T5, cysteines in MDA-MB-231 and Ramos cells (Homo sapiens, UniProt P13667)
T5 sequence (P13667 21-645): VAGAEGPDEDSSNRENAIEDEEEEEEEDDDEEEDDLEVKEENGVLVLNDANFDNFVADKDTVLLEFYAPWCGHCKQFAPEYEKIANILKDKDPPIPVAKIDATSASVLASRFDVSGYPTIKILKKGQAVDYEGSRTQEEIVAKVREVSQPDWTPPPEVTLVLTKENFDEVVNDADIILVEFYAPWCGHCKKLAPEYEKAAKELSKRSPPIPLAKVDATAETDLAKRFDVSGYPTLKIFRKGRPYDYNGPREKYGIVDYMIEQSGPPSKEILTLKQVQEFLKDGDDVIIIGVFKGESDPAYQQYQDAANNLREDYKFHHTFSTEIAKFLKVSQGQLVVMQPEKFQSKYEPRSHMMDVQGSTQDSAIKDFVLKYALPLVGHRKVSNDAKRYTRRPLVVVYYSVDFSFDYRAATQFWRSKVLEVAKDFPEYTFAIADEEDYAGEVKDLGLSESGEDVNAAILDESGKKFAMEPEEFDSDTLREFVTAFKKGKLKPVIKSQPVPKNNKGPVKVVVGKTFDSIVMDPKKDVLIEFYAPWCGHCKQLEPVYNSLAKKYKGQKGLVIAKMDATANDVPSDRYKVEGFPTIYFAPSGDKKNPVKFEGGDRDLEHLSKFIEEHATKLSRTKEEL

## O=C(CCl)Nc1cccc2ncccc12 [compound 51]
[1]
  isoTOP-ABPP ratio Q9NQR4_C153: 0.6
[2]
  isoTOP-ABPP ratio P22307_C71: 5.6
[3]
  isoTOP-ABPP ratio P42166_C341: 1.2
  isoTOP-ABPP ratio P42166_C561: 1.3
  isoTOP-ABPP ratio P42166_C684: 1.2
[4]
  isoTOP-ABPP ratio Q9Y3D0_C93: 20.0
[5]
  isoTOP-ABPP ratio P13667_C206: 5.3
  isoTOP-ABPP ratio P13667_C555: 6.0
